Laboratory results: patent US10251394B2, “Molecules having pesticidal utility, and intermediates, compositions, and processes, related thereto” (Dow AgroSciences LLC, priority 2016, dated 2019)

Key:
[1] = tested on: Cabbage Looper (Trichoplusia ni); test: Bioassay on Cabbage Looper (CL), 128-well diet tray assay; type: in vivo; settings: for mortality at 0.05 µg/cm2 / mortality at 0.5 µg/cm2 / mortality at 5 µg/cm2: 168 h, second instar larvae, five to seven days, read-out: CL Percent control (or mortality); for mortality at 0.05 µg/cm2: 0.05 μg/cm^2 on artificial diet; for mortality at 0.5 µg/cm2: 0.5 μg/cm^2 on artificial diet; for mortality at 5 µg/cm2: 5 μg/cm^2 on artificial diet; for pest or weed control at 50 µg/cm2: Cabbage Looper, Table ABC, read-out: CL rating
Method in brief: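 Mortality after five to seven days at 25° C (14:10 photoperiod), averaged over eight wells per compound. Diet in each well carried 50 μg/cm^2 of dried test molecule and received one to five second-instar larvae.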

[2] = tested on: Beet Armyworm (Spodoptera exigua); test: Bioassay on Beet Armyworm (BAW), 128-well diet tray assay; type: in vivo; settings: for mortality at 0.05 µg/cm2 / mortality at 0.5 µg/cm2 / mortality at 5 µg/cm2: 168 h, second instar larvae, five to seven days, read-out: BAW Percent control (or mortality); for mortality at 0.05 µg/cm2: 0.05 μg/cm^2 on artificial diet; for mortality at 0.5 µg/cm2: 0.5 μg/cm^2 on artificial diet; for mortality at 5 µg/cm2: 5 μg/cm^2 on artificial diet; for pest or weed control at 50 µg/cm2: Beet Armyworm, Table ABC, read-out: BAW rating
Method in brief: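 Percent mortality, averaged over eight wells, was scored after five to seven days at 25° C under 14:10 light-dark. Each well's diet carried 50 μg/cm^2 of test molecule applied in acetone-water (90:10) and dried before one to five second-instar larvae were added.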

| Compound | mortality at 0.05 µg/cm2 [1] [%] | mortality at 0.5 µg/cm2 [1] [%] | mortality at 5 µg/cm2 [1] [%] | mortality at 0.05 µg/cm2 [2] [%] | mortality at 0.5 µg/cm2 [2] [%] | mortality at 5 µg/cm2 [2] [%] | pest or weed control at 50 µg/cm2 [1] [%] | pest or weed control at 50 µg/cm2 [2] [%] |
| --- | --- | --- | --- | --- | --- | --- | --- | --- |
| O=C(CNC(=O)c1ccc(/C(F)=C/C(c2cc(Cl)c(Cl)c(Cl)c2)C(F)(F)F)cc1)NCC(F)(F)F (centres unmarked) [FC1, (Z)—N-(2-Oxo-2-((2,2,2-trifluoroethyl)amino)ethyl)-4-(1,4,4,4-tetrafluoro-3-(3,4,5-trichlorophenyl)but-1-en-1-yl)benzamide] | 0 | 100 | 100 | 0 | 100 | 100 |  |  |
| C[C@@H](NC(=O)c1ccc(/C(F)=C/C(c2cc(Cl)c(Cl)c(Cl)c2)C(F)(F)F)cc1)C(=O)NCC(F)(F)F (stereo partly drawn) [FC2, N—((R)-1-Oxo-1-((2,2,2-trifluoroethyl)amino)propan-2-yl)-4-((Z)-1,4,4,4-tetrafluoro-3-(3,4,5-trichlorophenyl)but-1-en-1-yl)benzamide] | 0 | 100 | 100 | 0 | 100 | 100 |  |  |
| C[C@@H](NC(=O)c1ccc(/C(F)=C/C(c2ccc(Br)c(Cl)c2)C(F)(F)F)cc1C(F)(F)F)C(=O)N(C)CC(F)(F)F (stereo partly drawn) [PF26, 4-((Z)-3-(4-Bromo-3-chlorophenyl)-1,4,4,4-tetrafluorobut-1-en-1-yl]-N—((R)-1-(methyl(2,2,2-trifluoroethyl)amino)-1-oxopropan-2-yl)-2-(trifluoromethyl)benzamide] |  |  |  |  |  |  | 50 to 100 | 50 to 100 |
| CN(CC(F)(F)F)C(=O)C1(NC(=O)c2ccc(/C(F)=C/C(c3ccc(Br)c(Cl)c3)C(F)(F)F)cc2C(F)(F)F)CC1 (centres unmarked) [PF28, (Z)-4-(3-(4-Bromo-3-chlorophenyl)-1,4,4,4-tetrafluorobut-1-en-1-yl]-N-(1-(methyl(2,2,2-trifluoroethyl)carbamoyl)cyclopropyl)-2-(trifluoromethyl)benzamide] |  |  |  |  |  |  | 50 to 100 | 50 to 100 |
| CN(CC(F)(F)F)C(=O)CNC(=O)c1ccc(/C(F)=C/C(c2cc(Cl)cc(C(F)(F)F)c2)C(F)(F)F)cc1C(F)(F)F (centres unmarked) [PF41, (Z)-4-(3-(3-Chloro-5-(trifluoromethyl)phenyl)-1,4,4,4-tetrafluorobut-1-en-1-yl)-N-(2-(methyl(2,2,2-trifluoroethyl)amino)-2-oxoethyl)-2-(trifluoromethyl)benzamide] |  |  |  |  |  |  | 50 to 100 | 50 to 100 |
| C[C@@H](NC(=O)c1ccc(/C(F)=C/C(c2cc(Cl)cc(C(F)(F)F)c2)C(F)(F)F)cc1C(F)(F)F)C(=O)NCC(F)(F)F (stereo partly drawn) [PF42, 4-((Z)-3-(3-Chloro-5-(trifluoromethyl)phenyl)-1,4,4,4-tetrafluorobut-1-en-1-yl)-N-((1R)-1-oxo-1-((2,2,2-trifluoroethyl)amino)propan-2-yl)-2-(trifluoromethyl)benzamide] |  |  |  |  |  |  | 50 to 100 | 50 to 100 |
| C[C@@H](NC(=O)c1ccc(/C(F)=C/C(c2cc(Cl)cc(C(F)(F)F)c2)C(F)(F)F)cc1C(F)(F)F)C(=O)N(C)CC(F)(F)F (stereo partly drawn) [PF43, 4-((Z)-3-(3-Chloro-5-(trifluoromethyl)phenyl)-1,4,4,4-tetrafluorobut-1-en-1-yl)-N—((R)-1-(methyl(2,2,2-trifluoroethyl)amino)-1-oxopropan-2-yl)-2-(trifluoromethyl)benzamide] |  |  |  |  |  |  | 50 to 100 | 50 to 100 |
| O=C(NC1(C(=O)NCC(F)(F)F)CC1)c1ccc(/C(F)=C/C(c2cc(Cl)cc(C(F)(F)F)c2)C(F)(F)F)cc1C(F)(F)F (centres unmarked) [PF44] |  |  |  |  |  |  | 50 to 100 | 50 to 100 |
| CN(CC(F)(F)F)C(=O)C1(NC(=O)c2ccc(/C(F)=C/C(c3cc(Cl)cc(C(F)(F)F)c3)C(F)(F)F)cc2C(F)(F)F)CC1 (centres unmarked) [PF45, (Z)-4-(3-(3-Chloro-5-(trifluoromethyl)phenyl)-1,4,4,4-tetrafluorobut-1-en-1-yl)-N-(1-(methyl(2,2,2-trifluoroethyl)carbamoyl)cyclopropyl)-2-(trifluoromethyl)benzamide] |  |  |  |  |  |  | 50 to 100 | 50 to 100 |
